# Data published in PMC9611449, “Hydroxy-3-Phenylcoumarins as Multitarget Compounds for Skin Aging Diseases: Synthesis, Molecular Docking and Tyrosinase, Elastase, Collagenase and Hyaluronidase Inhibition, and Sun Protection Factor” (Molecules, 2022).
# “Also recorded” adds a separate entry of the source.
# Assays:
# [1] = tested on: Human skin keratinocyte cell line (HaCaT); assay: HaCaT cell viability (MTT assay); type: cell-based; details: 10–200 μM, 24 h
# Description: Human skin keratinocyte cell line (HaCaT; CLS–Cell Lines Service, Eppelheim, Germany) was cultured in Dulbecco’s Modified Eagle’s Medium (DMEM) with 10% fetal bovine serum (FBS; Gibco, NY, USA) and 1% penicillin/streptomycin at 37 °C in a humidified atmosphere with 5% CO2. Cell viability was determined by the MTT (3-(4,5-dimethylthiazol-2-yl)-2,5-diphenyltetrazolium bromide) colorimetric assay, as previously reported. Briefly, HaCaT cells were seeded in 96-well plates and incubated with compounds at different concentrations (0–200 µM). After 24 h, cells were labelled with MTT solution for 3 h at 37 °C. DMSO was added to the formed violet formazan precipitates and the absorbance of each well was measured at 560 nm.
# [2] = biological target: porcine pancreatic elastase (Sus scrofa, UniProt P00772); assay: Elastase inhibition assay (SANA substrate); type: biochemical
# Sequence of porcine pancreatic elastase (P00772 27-266): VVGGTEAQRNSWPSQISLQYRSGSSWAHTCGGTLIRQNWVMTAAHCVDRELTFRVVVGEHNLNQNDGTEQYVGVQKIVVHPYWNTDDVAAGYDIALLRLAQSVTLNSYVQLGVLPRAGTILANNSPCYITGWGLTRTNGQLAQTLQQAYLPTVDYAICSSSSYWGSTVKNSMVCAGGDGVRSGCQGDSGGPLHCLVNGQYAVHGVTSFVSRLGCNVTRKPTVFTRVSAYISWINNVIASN
# Description: (§1) Since the compounds were dissolved in DMSO, in the assays carried out without compounds, DMSO was added to the reaction mixture as blank control. […] Data from activity experiments were recorded using an Ultrospec 2100 spectrophotometer (Biochrom Ltd., Cambridge, UK).
# The inhibition of elastase was determined by measuring the production of p-nitroaniline during the reaction of the enzyme with the N-succ-(Ala)3-nitroanilide (SANA) substrate. The assay was carried out in Tris-HCl buffer (0.1 M, pH 8.0) containing porcine pancreatic elastase (3.3 µg/mL). The reaction mixture was incubated in the presence or in the absence of the test compounds for 20 minutes and, once the substrate (1.6 mM) was added, the enzyme activity was monitored at 410 nm.
# [3] = biological target: mushroom tyrosinase; set-up: method as in doi:10.1039/C5RA14465E; details: data previously reported; cited from earlier work
# [4] = tested on: mushroom tyrosinase; assay: Tyrosinase inhibition assay (L-DOPA substrate); type: biochemical
# Description: as §1
# The inhibition of tyrosinase was monitored by using DOPA as substrate. The reaction solution contained phosphate buffer (25 mM, pH 6.8) and mushroom tyrosinase (100 U/mL), with or without test samples.
# [5] = tested on: Collagenase from Clostridium histolyticum; assay: Collagenase inhibition assay (FALGPA substrate); type: biochemical
# Description: as §1, with “Results from all the inhibition tests described below were reported as a percentage of the blank control. Since” for “Since”
# Collagenase from Clostridium histolyticum (1 U/mL) was prepared in 0.05 M Tricine buffer (pH 7.5), with 0.4 M NaCl and 0.01 M CaCl2, and incubated with different concentrations of test samples for 15 minutes. After adding the N-(3-[2-Furyl]-acryloyl)-Leu-Gly-Pro-Ala (FALGPA) substrate, prepared in the same buffer solution reaching a final concentration of 0.8 mM, the absorbance was registered at 340 nm. Epigallocatechin gallate was used as a positive control.
# [6] = mean ± SD of three independent experiments
structure (smiles),measurement,setting,value
"O=c1oc2cc(O)cc(O)c2cc1-c1ccc(Br)cc1 [Compound 1, 3-(4′-Bromophenyl)-5,7-dihydroxycoumarin]",Cytotoxicity on HaCaT cell viability,[1],non-cytotoxic; also recorded: no toxicity
same,melting point,,273 to 275 °C
same,inhibition at 50 µM,"[2]; 50 μM, read-out: Enzyme inhibition Elastase",15.6%
same,IC50,[2]; [6],> 50 µM
same,IC50,[3],1.05 ± 0.06 µM
same,Enzyme inhibition Tyrosinase,[4]; 50 μM,98.3%
same,times more active than the standard inhibitor kojic acid (tyrosinase),[4]; ratio of IC50 values,17 times
same,Enzyme inhibition Collagenase,[5]; 100 μM,42.6%
same,IC50,[5]; [6],123 ± 2.2 µM
